In assay [1] the test system is IL-2, IFNγ, and TNFα in plasma. Kind of assay: In vivo activity: plasma cytokine levels (IL-2, IFNγ, TNFα) in mice stimulated with anti-CD3 antibody. To be noted: 2 μg anti-CD3 antibody, 8 hours post-stimulation. On the procedure: (§1) A method of determining the pharmacodynamic profile of Cbl-b inhibitors was performed by dosing strains of mice with competent immune systems such as C57BL/6 or BALB/c with a Cbl-b inhibitor. The Cbl-b inhibitor was dissolved in a suitable formulation and administered by one of various routes such as intravenous (IV), intraperitoneal (IP), subcutaneous (SC), or oral (PO), at a suitable dose level and frequency (e.g. twice per day BID or thrice per day TID) as informed by prior pharmacokinetic and tolerability studies. Following administration of the Cbl-b inhibitor, T-cells and indirectly other immune cells (e.g. via cytokine production) were stimulated in vivo by administration of an anti-CD3 antibody or antigen-binding fragment thereof in PBS at defined amounts such as 2 μg or 10 μg per animal by routes such as IV or IP (See Hirsh et al., J. Immunol., 1989; Ferran, et al., Eur. J. Immunol., 1990). Additional study control arms included groups of mice treated with a vehicle formulation alone (i.e., formulation without the Cbl-b inhibitor and anti-CD3 antibody), a formulation containing the Cbl-b inhibitor alone, a formulation containing the anti-CD3 antibody alone, PBS alone, or combinations of these agents. The level of immune activation was then assessed by analysis of plasma cytokine levels and/or expression of activation markers on immune cells (e.g. T-cells). Blood or lymphoid organs (e.g. spleen) were collected at defined time points (e.g. 8 hours or 24 hours). Blood samples were processed to collect plasma for determination of cytokine levels using standard methods known in the art. Cytokines measured included IL-2, IFNγ, and TNFα. Additional blood samples and lymphoid tissues were processed for flow cytometric analysis of immune cells (e.g. T-cells) using standard methods to determine expression of cell type-specific markers and activation markers such as CD25 and/or CD69. Augmentation of immune stimulation by Cbl-b inhibitor administration was assessed by comparing the relative concentrations of cytokines in plasma, or the expression levels of activation markers on immune cells between appropriate groups (e.g. mice treated with Cbl-b inhibitor and 2 μg anti-CD3 antibody versus mice treated with vehicle and 2 μg anti-CD3 antibody).
(§2) Cbl-b inhibitors were tested to determine their ability to induce or enhance the level of cytokines (e.g. IL-2, IFNγ, and TNFα) in blood obtained from treated mice stimulated with an anti-CD3 antibody, which is indicative of modulation of the immune response. Cbl-b inhibitors were also tested to determine their ability to induce or enhance the expression of cell surface markers on T-cells (e.g. CD25 and/or CD69) isolated from treated mice stimulated with an anti-CD3 antibody, which is indicative of modulation of the immune response.
(§3) Readouts were reported as fold change over baseline. The fold change was calculated from the mean value of mice treated with Cbl-b inhibitor and 2 μg anti-CD3 antibody, with the baseline defined as the mean value of mice treated with vehicle and 2 μg anti-CD3 antibody. Increases in the percentage of cells with surface expression of CD25 on CD4+ T-cells or CD8+ T-cells greater than 1.5-fold over baseline at 24 hours were considered a positive response. Increases in the plasma concentration of IL-2, IFNγ, and TNFα greater than 1.5-fold over baseline at 8 hours post-stimulation were also considered a positive response (Table 8). Fold changes were ranked into bins according to their readouts as follows: A indicates >2.50, B indicates 2.01-2.50, C indicates 1.51-2.00, D indicates 1.00-1.50, and E indicates <1.00.

For assay [2], the system named is primary human B cells. Kind of assay: B cell activation assay (CD69 on anti-IgM stimulated B cells). The assay is classed as cell-based. As to conditions: AUC of dose response curve (10 μM to 1 nM) of CD69 MFI normalized to DMSO control. On the procedure: Peripheral blood mononuclear cells (PBMC) were obtained either: 1) by using Ficoll-Paque™ (GE Healthcare) for separation of peripheral blood hematopoietic cells from buffy coats of healthy human donors; or 2) directly from LeukoPak donations. Human primary B cells were isolated from the PBMCs utilizing negative selection with commercial kits following the manufacturer's protocol (StemCells Catalog #17954) to yield >95% CD20+ cells assessed by flow cytometry. Primary human B cells were plated at 0.7-1×10^5 per well in a 96-well plate with Cbl-b inhibitors over a dose ranging from 10 μM to 1 nM and incubated at 37° C. 5% CO2, with a final DMSO concentration of <0.5%. Cells were stimulated with anti-IgM for 20 hours at 37° C. 5% CO2. Surface activation markers on mature CD20^+ IgD^+ B cells were monitored by FACS using an anti-CD69 antibody (BD Biosciences).
Cbl-b inhibitors were tested to determine their ability to induce or enhance surface expression of cell surface markers on B cells (e.g., CD69), which is indicative of B cell activation.
Readouts were reported as area under curve (AUC) of the dose response curve of CD69 mean fluorescence intensity (MFI) normalized to the DMSO control. Baseline for this study was the measurement obtained from primary human B cells treated with DMSO in the presence of 2.5 μg/mL of anti-IgM-F(ab′)2. […] Compounds were ranked into bins according to their readouts as follows: A indicates ≤0.5, B indicates 0.5-1.00, C indicates 1.01-1.50, and D indicates ≥1.51.

In assay [3] the test system is T-cells. Description: In vivo activity: CD25 expression on CD4+ or CD8+ T-cells of mice stimulated with anti-CD3 antibody. To be noted: 2 μg anti-CD3 antibody, 24 hours. How it is done:
as §1, §2, §3

Assay [4] deals with Cbl-b (residues 36-427) (Homo sapiens, UniProt Q13191). Kind of assay: Cbl-b binding assay (SPR, Biacore T200). As to conditions: 20° C., 1:1 binding model. A digest of the protocol:
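Steps: capture protein on NeutrAvidin surface; inject compound dilutions (8 or 10 points from 100 or 50 μM) 50 s; allow 90-180 s dissociation; regenerate 20 s with 0.3 M NaCl. Runs at 20° C in HEPES pH 7.5/100 mM NaCl/2% DMSO; 1:1 fitting.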
Background: In SPR one partner is held on a chip, and binding of the other changes the refractive index at the surface.

In assay [5] the target is T1, Cbl-b (Homo sapiens, UniProt Q13191). Description: Cbl-b activity assay (Cbl-b inhibition assay), TR-FRET of Cbl-b interaction with UbcH5B-Ub. To be noted: assay buffer with 100 mM NaCl, 60 nM Src kinase; read-out: Cbl-b activity IC50. The assay is classed as biochemical. The gist of the method:
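UbcH5B (C85K) conjugated to N-terminally Bodipy-Fluorescein-labeled ubiquitin served as the fluorescent partner. After compound preincubation, Src kinase (60 nM) with 1 mM ATP and 5 mM MgCl2 (final) was added for 1.5 h, followed by a further 1 h incubation. Some values were obtained with 50 mM NaCl and 30 nM Src.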

Assay [6] addresses T1, Cbl-b. Kind of assay: Cbl-b inhibition assay (Cbl-b activity assay, FRET, Biological Example 1; 100 mM NaCl, 60 nM Src kinase). In kind it is biochemical. To be noted: upper bound stated in text lists; read-out: IC50 values in the Cbl-b inhibition assay of Biological Example 1. The gist of the method:
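N-terminally biotinylated Avi-tagged Cbl-b was mixed with Src kinase, UbcH5B covalently conjugated to Bodipy-fluorescein ubiquitin, and streptavidin-terbium. Src phosphorylation lets Cbl-b bind UbcH5B-Ub, giving terbium-fluorescein FRET; inhibition is read as loss of FRET signal.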

The structures appear in SMILES notation.

T1 sequence (Q13191 36-427): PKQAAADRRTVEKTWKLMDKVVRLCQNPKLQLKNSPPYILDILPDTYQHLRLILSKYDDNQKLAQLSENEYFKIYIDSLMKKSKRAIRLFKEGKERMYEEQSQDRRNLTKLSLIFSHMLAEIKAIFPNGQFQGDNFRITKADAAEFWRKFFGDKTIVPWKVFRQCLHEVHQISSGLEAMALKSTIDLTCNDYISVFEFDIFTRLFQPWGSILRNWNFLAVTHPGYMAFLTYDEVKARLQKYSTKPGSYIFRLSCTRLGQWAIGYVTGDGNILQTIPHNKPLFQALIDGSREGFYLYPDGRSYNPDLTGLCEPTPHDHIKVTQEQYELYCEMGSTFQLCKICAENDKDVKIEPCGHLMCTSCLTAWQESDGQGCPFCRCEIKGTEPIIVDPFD
Sequence of Cbl-b (residues 36-427) (Q13191 36-427): as above

Consider `C[C@H](Sc1nncn1C)c1cccc(NC(=O)c2cccc(C(F)(F)F)n2)c1` [Compound 57a, (S)-N-(3-(1-((4-methyl-4H-1,2,4-triazol-3-yl)thio)ethyl)phenyl)-6-(trifluoromethyl)picolinamide], for which, in assay [1] (90 mpk IP BID), the IFNγ plasma concentration entry is reported as “D (D indicates 1.00-1.50)”, the IL-2 plasma concentration entry is recorded as “A (A indicates >2.50)” and the TNFα plasma concentration result is recorded as “A (A indicates >2.50)”. In assay [1] (90 mpk IP TID), the IFNγ plasma concentration entry is “B (B indicates 2.01-2.50)”, the IL-2 plasma concentration entry is “A (A indicates >2.50)” and the TNFα plasma concentration entry is “A (A indicates >2.50)”. In addition, the “CD69 MFI AUC” value in assay [2] is “B (B indicates 0.5-1.00)”. In assay [3] (90 mpk IP BID), the “CD4+ T-cell % CD25+” value is given as “D (D indicates 1.00-1.50)” and the “CD8+ T-cell % CD25+” value is listed as “E (E indicates <1.00)”. In assay [3] (90 mpk IP TID), the “CD4+ T-cell % CD25+” value was “D (D indicates 1.00-1.50)” and the “CD8+ T-cell % CD25+” value was “C (C indicates 1.51-2.00)”.
For `C[C@@H](Sc1nncn1C)c1cccc(NC(=O)c2cccc(C(F)(F)F)n2)c1` [Compound 57b, (R)-N-(3-(1-((4-methyl-4H-1,2,4-triazol-3-yl)thio)ethyl)phenyl)-6-(trifluoromethyl)picolinamide], in assay [1] (90 mpk IP BID), the IFNγ plasma concentration entry is listed as “E (E indicates <1.00)”, the IL-2 plasma concentration result was “E (E indicates <1.00)” and the TNFα plasma concentration result was “D (D indicates 1.00-1.50)”. Further, in assay [1] (90 mpk IP TID), the IFNγ plasma concentration entry is reported as “E (E indicates <1.00)”, the IL-2 plasma concentration result was “E (E indicates <1.00)” and the TNFα plasma concentration result is “E (E indicates <1.00)”. Further, the “CD69 MFI AUC” value in assay [2] was “A (A indicates ≤0.5)”. Besides, in assay [3] (90 mpk IP BID), the “CD4+ T-cell % CD25+” value was “C (C indicates 1.51-2.00)” and the “CD8+ T-cell % CD25+” value is reported as “E (E indicates <1.00)”. In addition, in assay [3] (90 mpk IP TID), the “CD4+ T-cell % CD25+” value was “E (E indicates <1.00)” and the “CD8+ T-cell % CD25+” value was “D (D indicates 1.00-1.50)”.
`C[C@@H](Cc1nncn1C)c1cccc(N2Cc3c(cccc3C(F)(F)F)C2=O)c1` [Compound 255b] displayed a dissociation constant (Kd) in assay [4] of 3 to 10 µM. Besides, the IC50 in assay [5] is 1 to 3 µM; in assay [6], no more than 10 µM. The “CD4+ T-cell % CD25+” value in assay [3] (135 mpk PO BID) and in assay [3] (180 mpk PO BID) was “E (E indicates <1.00)” throughout. Further, the “CD8+ T-cell % CD25+” value in assay [3] (135 mpk PO BID) and in assay [3] (180 mpk PO BID) was “E (E indicates <1.00)” each time.

As a reminder, the Kd is a measure of binding affinity in units of concentration. In general, IC50 refers to the point on the concentration scale where inhibition reaches its midpoint.

(Values after US20220324835A1 (Nurix Therapeutics, Inc., priority 2018, published 2022).)
